Reference: US20080170998A1 (priority 2005, published 2008)

Experiments:
[1] = system: Actinobacillus actinomycetemcomitans ATCC 29523 stain, Y4 strain; test: Growth of periodontopathic bacteria in pRH-containing medium (turbidity O.D.660 nm); format: cell-based; conditions: 500 μg/mL; ATCC 29523 and Y4 strains; FIGS. 5, 6
Protocol: (§1) Each of the above cryopreserved strains was anaerobically cultivated at 35° C. for 48 hours by using TSB medium to which yeast extract (1 g/L), hemin ([…]), and menadione (1 mg/L) were added to provide a precultured bacterial culture.

[2] = system: Fusobacterium nucleatum ATCC 23726 strain, ATCC 25586 strain; test: as above; format: cell-based; conditions: 500 μg/mL; ATCC 23726 and ATCC 25586 strains; FIGS. 7, 8
Protocol: as §1

[3] = system: Porphyromonas gingivalis ATCC 33277 strain, W50 strain; test: as above; format: cell-based; conditions: 500 μg/mL; ATCC 33277 and W50 strains; FIGS. 1, 2
Protocol: as §1

[4] = system: Prevotella intermedia ATCC 49046 strain; test: as above; format: cell-based; conditions: 500 μg/mL, FIG. 3
Protocol: as §1

[5] = system: Treponema denticola ATCC 33520 strain; test: as above; format: cell-based; conditions: 500 μg/mL, FIG. 9
Protocol: as §1

[6] = system: arginine-specific protease (Arg-gingipain; RGP); test: Protease inhibition, fluorogenic substrate Bz-Arg-methylcoumarinamide, culture supernatant; format: biochemical, Porphyromonas gingivalis; conditions: substrate 100 μM, 15 minutes room temperature
Protocol: Enzyme activity inhibitions of an arginine-specific protease (Arg-gingipain; hereinafter, referred to as “RGP”) and lysin-specific protease (Lys-gingipain; hereinafter, referred to as “KGP”) as dominant virulence factor for Porphyromonas gingivalis were examined.
The reaction was stopped by adding 2 mM TLCK, and released methyl-coumarin-amide was measured by means of spectrophotofluorometer (excitation wavelength: 380 nm, fluorescence wavelength: 460 nm).
Furthermore, an inhibition rate was defined according to the Equation (1):
Inhibition rate(%)=(Blank fluorescence intensity−Sample fluorescence intensity)÷Blank fluorescence intensity×100 (1)
Blank fluorescence intensity indicates fluorescence intensity upon reaction without adding pRH. Sample fluorescence intensity indicates fluorescence intensity upon reaction with adding pRH.

[7] = system: Porphyromonas gingivalis ATCC 33277 strain; format: cell-based; conditions: 0.1 mg/mL, 1 mg/mL, 10 mg/mL
[8] = system: Prevotella nigrescens ATCC 25261 strain; conditions: O.D.660 nm after 24 hours and 48 hours, FIG. 4
[9] = system: Porphyromonas gingivalis ATCC 33277 strain and Streptococcus oralis ATCC 9811 strain; conditions: pRH solution 2.5 mg/mL; PBS pH 6.0, 37° C.; FIG. 13

Row | Substance | growth inhibitory effect [1] | growth inhibitory effect [2] | growth inhibitory effect [3] | growth inhibitory effect [4] | growth inhibitory effect [5] | inhibition rate for RGP ([6]; pRH at 100 μg/mL) [%] | inhibition rate for RGP ([6]; pRH at 1000 μg/mL) [%] | inhibition of the absorption (adhesion) of Porphyromonas gingivalis for sHA [7] | concentration at which a growth inhibitory effect was observed [8] [µg/mL] | aggregation inhibitory activity (inhibition rate of coaggregation) [9] [%]
1 | polyarginyl histidine [pRH] | not observed | not observed | not observed | not observed | not observed | 0.2 | 7.7 | obviously inhibited | ≥ 100 | 33
2 | polylysine [reference compound] | – | – | – | – | – | – | – | did not inhibit | – | –
